Source: US8906829B2, “Synergistic algicidal compositions including hydrazone derivatives and copper” (Dow AgroSciences LLC, priority 2010, dated 2014)

Legend:
[1] = system: Synechocystis sp. strain 6803; assay: Growth inhibition of Synechocystis by hydrazones and isolated metal-hydrazone complexes, BG-11 Cu minus medium (Example 12); type: cell-based; conditions: Synechocystis, Test Concn. 0.05 μg/ml, read-out: Hydrazone % Inhn.
Protocol: In vitro toxicity assays against the cyanobacterium (blue-green alga) Synechocystis sp. strain 6803 were conducted using BG-11 medium except that copper micronutrient, normally included as CuSO4.5H2O, was omitted. The medium, termed BG-11 Cu minus, was prepared by dissolving 1.5 g NaNO3, 40 mg K2HPO4, 6 mg citric acid, 1 mg Na2EDTA and 20 mg Na2CO3 in 1 liter of milli Q water and treating the solution with 0.5 g Chelex 100 resin (Bio-Rad Analytical grade, 50-100 mesh, sodium form, cat#142-2822) by stifling at room temperature for 1 h. 900 mL were decanted and 67.5 mg MgSO4.7H2O, 32.4 mg […], 5.4 mg ferric ammonium citrate and 0.9 mL trace metal mix A5 without copper (2.86 g H3BO3, 1.81 g MnCl2.4H2O, 222 mg ZnSO4.7H2O, 390 mg Na2MoO4.2H2O and Co(NO3)2.6H2O in 1 L Milli Q water) was added. The pH was adjusted to 7.1 and the medium was filter-sterilized. Medium containing copper (BG-11 Cu plus) was prepared by adding CuCl2.2H2O to the BG-11 Cu minus medium at 0.2 μM. Test compounds were dissolved in dimethylsulfoxide (DMSO) at 2 mg/mL then appropriate dilutions in BG-11 Cu minus and BG-11 Cu plus media were prepared in sterilized microcentrifuge tubes. 100 μL aliquots were dispensed into flat-bottomed 96-well microtiter plates. Synechocystis was maintained under 24 h of light on BG-11 agar plates at 27° C. A loopful of cells was added to 50 mL of BG-11 Cu minus growth medium and the culture was incubated with shaking at 200 rpm at 27° C. for 24 h. The culture (10 to 20 mL aliquot) was centrifuged in a bench centrifuge at 2400 rpm for 2 min. The resulting cell pellet was resuspended in 5 mL sterile milli Q water (which had been treated with Chelex 100 resin using 0.5 g resin per liter of water by stirring at room temperature for 1 h), and recentrifuged. The cells were resuspended in BG-11 Cu minus medium, and the suspension adjusted to 4×10^5 spores per mL. Microtiter plates containing compounds as described above were inoculated with 100 μL of this cell suspension and the plates incubated at 27° C. for 72 h before assessing algal growth by measuring light scattering in a NepheloStar plate reader. Growth inhibition was determined by comparing growth in the presence of test compound with growth in control wells lacking test compound. Hydrazones and their isolated metal complexes were compared with respect to their in vitro activity toward C. reinhardtii and the cyanobacterium (blue-green alga) Synechocystis sp. strain 6803. Metal complexes of hydrazones were prepared by precipitation from ethanol with various metal salts at 1:1, 2:1 or 3:1 molar ratios, as described in general by Ainscough, Brodie, Dobbs, Ranford, and Waters (Inorganica Chimica Acta 1998, 267, 27-38, which is expressly incorporated by reference herein). In vitro assays against Synechocystis were conducted as described in Example 11 using BG-11 Cu minus medium. Growth inhibition was determined by comparing growth in the presence of test compound with growth in control wells lacking test compound.

**Q.** Which results are given for O=C(N/N=C/c1cc(C(F)(F)F)ccc1O)c1ccccc1 [Compound 68]?
**A.** inhibition of growth at 0.05 µg/mL [1]: 16%; melting point: 214 to 217 °C
